Data from patent publication US8575157B2, “Cyclic inhibitors of 11beta-hydroxysteroid dehydrogenase 1” (Vitae Pharmaceuticals, Inc., priority 2010, dated 2013).
Where two headings read alike, the source gives them in different places.

Experiments:
Format in all cases: in vitro ADME
human CYP2C9 = human CYP2C9 (Homo sapiens (Human), UniProt P11712); test: CYP2C9 inhibition (Invitrogen kit, OOMR fluorogenic substrate), Biological Test Example 9; conditions: read-out: Biological Test Example 9 CYP2C9 IC50
Chain of human CYP2C9 (P11712 whole entry): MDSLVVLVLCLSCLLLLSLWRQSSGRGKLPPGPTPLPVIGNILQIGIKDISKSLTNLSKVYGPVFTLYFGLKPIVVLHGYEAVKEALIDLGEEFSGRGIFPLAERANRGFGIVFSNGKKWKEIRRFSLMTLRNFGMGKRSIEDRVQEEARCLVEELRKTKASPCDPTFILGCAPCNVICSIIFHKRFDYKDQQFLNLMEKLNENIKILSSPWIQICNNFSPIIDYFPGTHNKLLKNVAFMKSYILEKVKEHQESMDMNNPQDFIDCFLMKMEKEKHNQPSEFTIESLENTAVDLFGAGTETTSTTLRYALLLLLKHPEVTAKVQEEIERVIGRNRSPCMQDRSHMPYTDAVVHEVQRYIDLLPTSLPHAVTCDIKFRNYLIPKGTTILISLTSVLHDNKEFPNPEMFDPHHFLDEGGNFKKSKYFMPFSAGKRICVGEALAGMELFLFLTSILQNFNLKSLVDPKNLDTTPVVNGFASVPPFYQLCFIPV

[1] = molecular target: human recombinant cytochrome P450 3A4 (Homo sapiens (Human), UniProt P08684); test: CYP3A4 inhibition, Biological Test Example 6
Chain of human recombinant cytochrome P450 3A4 (P08684 whole entry): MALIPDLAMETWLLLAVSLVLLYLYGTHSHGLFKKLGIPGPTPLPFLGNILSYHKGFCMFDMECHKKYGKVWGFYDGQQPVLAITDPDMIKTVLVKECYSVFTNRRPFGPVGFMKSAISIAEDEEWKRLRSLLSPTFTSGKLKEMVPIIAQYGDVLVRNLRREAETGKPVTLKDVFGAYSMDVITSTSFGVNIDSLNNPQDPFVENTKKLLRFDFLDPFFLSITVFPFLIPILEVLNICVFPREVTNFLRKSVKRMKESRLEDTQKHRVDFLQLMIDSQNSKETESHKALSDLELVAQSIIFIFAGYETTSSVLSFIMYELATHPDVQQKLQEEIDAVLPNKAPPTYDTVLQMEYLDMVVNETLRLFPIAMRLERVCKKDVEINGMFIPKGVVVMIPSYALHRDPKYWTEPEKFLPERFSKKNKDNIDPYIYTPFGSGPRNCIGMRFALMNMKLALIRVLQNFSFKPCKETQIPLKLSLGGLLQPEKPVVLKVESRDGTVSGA

[2] = molecular target: human recombinant cytochrome P450 2C9 (Homo sapiens (Human), UniProt P11712); test: CYP2C9 inhibition ([O-methyl-14C]-Naproxen), Biological Test Example 7
Chain of human recombinant cytochrome P450 2C9 (P11712 whole entry): as the sequence (P11712 whole entry) above

[3] = molecular target: human recombinant cytochrome P450 2C19 (Homo sapiens (Human), UniProt P33261); test: CYP2C19 inhibition, Biological Test Example 8; conditions: read-out: Biological Test Example 8 CYP2C19, IC50
Chain of human recombinant cytochrome P450 2C19 (P33261 whole entry): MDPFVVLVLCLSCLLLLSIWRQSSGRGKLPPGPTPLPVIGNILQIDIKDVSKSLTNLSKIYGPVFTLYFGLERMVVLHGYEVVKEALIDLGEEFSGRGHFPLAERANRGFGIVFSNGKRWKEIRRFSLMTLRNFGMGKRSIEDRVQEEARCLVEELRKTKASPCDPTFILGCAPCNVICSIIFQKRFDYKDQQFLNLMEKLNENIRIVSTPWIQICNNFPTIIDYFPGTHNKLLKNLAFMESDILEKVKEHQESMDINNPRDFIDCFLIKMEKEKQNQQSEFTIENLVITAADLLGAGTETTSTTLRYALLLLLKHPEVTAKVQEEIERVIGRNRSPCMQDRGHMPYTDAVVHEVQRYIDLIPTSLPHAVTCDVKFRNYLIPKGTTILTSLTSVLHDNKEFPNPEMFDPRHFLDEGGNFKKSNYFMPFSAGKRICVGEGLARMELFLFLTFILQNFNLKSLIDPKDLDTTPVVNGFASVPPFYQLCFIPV

[4] = Invitrogen kit, OOMR fluorogenic substrate
[5] = human recombinant CYP2C19, [N-methyl-14C]-Diazepam

## C[C@@H](c1ccc(-c2cc[nH]c(=O)c2)cc1)N1CC[C@](CC(C)(C)O)(c2ccccc2)OC1=O [Example 2, (S)-6-(2-hydroxy-2-methylpropyl)-3-((S)-1-(4-(2-oxo-1,2-dihydropyridin-4-yl)phenyl)ethyl)-6-phenyl-1,3-oxazinan-2-one]
Human CYP2C9; [4]
  IC50: 1.4 µM

## C[C@@H](c1ccc(-c2ccc(=O)n(C(F)F)c2)cc1)N1CC[C@](CC(C)(C)O)(c2ccccc2)OC1=O [Example 4, (S)-3-((S)-1-(4-(1-(difluoromethyl)-6-oxo-1,6-dihydropyridin-3-yl)phenyl)ethyl)-6-(2-hydroxy-2-methylpropyl)-6-phenyl-1,3-oxazinan-2-one]
Human CYP2C9; [4]
  IC50: 5.1 µM

## C[C@@H](c1ccc(-c2ccc(=O)n(C)c2)cc1)N1CC[C@](CC(C)(C)C(N)=O)(c2ccccc2)OC1=O [Example 6, 2,2-dimethyl-3-((R)-3-((S)-1-(4-(1-methyl-6-oxo-1,6-dihydropyridin-3-yl)phenyl)ethyl)-2-oxo-6-phenyl-1,3-oxazinan-6-yl)propanamide]
[1]; human recombinant CYP3A4
  IC50: 4.4 µM
[2]; human recombinant CYP2C9
  IC50: 2.3 µM
[3]; [5]
  IC50: 8.6 µM
Human CYP2C9; [4]
  IC50: 5 µM

## C[C@@H](c1ccc(-c2ccc(=O)n(C)c2)cc1)N1CC[C@](CC(C)(C)N)(c2ccccc2)OC1=O [Example 7, (S)-6-(2-amino-2-methylpropyl)-3-((S)-1-(4-(1-methyl-6-oxo-1,6-dihydropyridin-3-yl)phenyl)ethyl)-6-phenyl-1,3-oxazinan-2-one]
Human CYP2C9; [4]
  IC50: 4 µM

## CC(=O)NC(C)(C)C[C@]1(c2ccccc2)CCN([C@@H](C)c2ccc(-c3ccc(=O)n(C)c3)cc2)C(=O)O1 [Example 8, N-(2-methyl-1-((S)-3-((S)-1-(4-(1-methyl-6-oxo-1,6-dihydropyridin-3-yl)phenyl)ethyl)-2-oxo-6-phenyl-1,3-oxazinan-6-yl)propan-2-yl)acetamide]
[1]; human recombinant CYP3A4
  IC50: […]
[2]; human recombinant CYP2C9
  IC50: […]
[3]; [5]
  IC50: […]
Human CYP2C9; [4]
  IC50: 3 µM

## C[C@@H](c1ccc(-c2ccn(C)c(=O)c2)cc1)N1CC[C@](CC(C)(C)O)(c2ccccc2F)OC1=O [Example 26, (S)-6-(2-fluorophenyl)-6-(2-hydroxy-2-methylpropyl)-3-((S)-1-(4-(1-methyl-2-oxo-1,2-dihydropyridin-4-yl)phenyl)ethyl)-1,3-oxazinan-2-one]
[1]
  IC50: > 50 µM
[2]
  IC50: > 50 µM
[3]
  IC50: > 50 µM

## C[C@@H](c1ccc(-c2ccc(=O)n(C)c2)cc1)N1CC[C@](CCCO)(c2ccccc2)OC1=O [Example 30, (R)-6-(3-hydroxypropyl)-3-((S)-1-(4-(1-methyl-6-oxo-1,6-dihydropyridin-3-yl)phenyl)ethyl)-6-phenyl-1,3-oxazinan-2-one]
[1]
  IC50: > 50 µM

## C[C@@H](c1ccc(-c2ccc(=O)n(C)c2)cc1)N1CC[C@](CC(C)(C)O)(c2ccc(F)cc2)OC1=O [Example 32, (S)-6-(4-fluorophenyl)-6-(2-hydroxy-2-methylpropyl)-3-((S)-1-(4-(1-methyl-6-oxo-1,6-dihydropyridin-3-yl)phenyl)ethyl)-1,3-oxazinan-2-one]
[1]
  IC50: > 50 µM
[2]
  IC50: > 50 µM
[3]
  IC50: > 50 µM

## CC[C@@H](c1ccc(-c2ccc(=O)n(C)c2)cc1)N1CC[C@](CCO)(c2ccccc2)OC1=O [Example 40, (S)-6-(2-hydroxyethyl)-3-((S)-1-(4-(1-methyl-6-oxo-1,6-dihydropyridin-3-yl)phenyl)propyl)-6-phenyl-1,3-oxazinan-2-one]
[1]
  IC50: > 50 µM
[2]
  IC50: > 50 µM

## CC(C)n1cc(-c2ccc([C@H](C)N3CC[C@](CC(C)(C)O)(c4ccccc4)OC3=O)cc2)ccc1=O [Example 59, (S)-6-(2-hydroxy-2-methylpropyl)-3-((S)-1-(4-(1-isopropyl-6-oxo-1,6-dihydropyridin-3-yl)phenyl)ethyl)-6-phenyl-1,3-oxazinan-2-one]
[1]
  IC50: > 50 µM

## Cc1cc(-c2ccc([C@H](C)N3CC[C@](CC(C)(C)O)(c4ccccc4)OC3=O)cc2)cn(C)c1=O [Example 61, (S)-3-((S)-1-(4-(1,5-dimethyl-6-oxo-1,6-dihydropyridin-3-yl)phenyl)ethyl)-6-(2-hydroxy-2-methylpropyl)-6-phenyl-1,3-oxazinan-2-one]
[1]
  IC50: > 50 µM

## CCn1cc(-c2ccc([C@H](C)N3CC[C@](CC(C)(C)O)(c4ccc(F)cc4)OC3=O)cc2)ccc1=O [Example 62, (S)-3-((S)-1-(4-(1-ethyl-6-oxo-1,6-dihydropyridin-3-yl)phenyl)ethyl)-6-(4-fluorophenyl)-6-(2-hydroxy-2-methylpropyl)-1,3-oxazinan-2-one]
[2]
  IC50: > 50 µM

## Cc1cc(-c2ccc([C@H](C)N3CC[C@](CC(C)(C)O)(c4ccccc4)OC3=O)cc2)cc(=O)n1C [Example 64, (S)-3-((S)-1-(4-(1,6-dimethyl-2-oxo-1,2-dihydropyridin-4-yl)phenyl)ethyl)-6-(2-hydroxy-2-methylpropyl)-6-phenyl-1,3-oxazinan-2-one]
[1]
  IC50: > 50 µM

## C[C@@H](c1ccc(-c2ccc(=O)n(C)c2)cc1)N1CC[C@](CC(C)(C)C#N)(c2ccc(F)cc2)OC1=O [Example 69, 3-((R)-6-(4-fluorophenyl)-3-((S)-1-(4-(1-methyl-6-oxo-1,6-dihydropyridin-3-yl)phenyl)ethyl)-2-oxo-1,3-oxazinan-6-yl)-2,2-dimethylpropanenitrile]
[3]
  IC50: > 50 µM

## CCn1cc(-c2ccc([C@H](C)N3CC[C@](CC(C)(C)O)(c4ccccc4)OC3=O)cc2)cc(C)c1=O [Example 70, (S)-3-((S)-1-(4-(1-ethyl-5-methyl-6-oxo-1,6-dihydropyridin-3-yl)phenyl)ethyl)-6-(2-hydroxy-2-methylpropyl)-6-phenyl-1,3-oxazinan-2-one]
[2]
  IC50: > 50 µM

## C[C@@H](c1ccc(-c2ccn(C3CC3)c(=O)c2)cc1)N1CC[C@](CC(C)(C)O)(c2ccccc2F)OC1=O [Example 88, (S)-3-((S)-1-(4-(1-cyclopropyl-2-oxo-1,2-dihydropyridin-4-yl)phenyl)ethyl)-6-(2-fluorophenyl)-6-(2-hydroxy-2-methylpropyl)-1,3-oxazinan-2-one]
[1]
  IC50: > 50 µM
[3]
  IC50: > 50 µM
